# Tests used:
# [1] = system: alkaline phosphatase (ALP); conditions: fff derivatives 8 mM, ALP 1.0 or 0.1 UmL^-1
# [2] = hydrophobicity of the aromatic group; source not stated; cited from earlier work
Molecule,"enzymatic hydrogelation, times faster than pB as enzyme trigger [1]",logP [2]
"O=C(O)c1ccc(-c2ccc(OP(=O)(O)O)cc2)cc1 [pBP, phosphohydroxybiphenyl-carboxylic acid]",50–60 times,–
c1ccc(-c2ccccc2)cc1 [biphenyl],–,3.71
phosphohydroxynaphthoic acid [pNP],50–60 times,–

# From publication PMC8600407 (Soft matter, 2021)
